Experimental data reported in US9533964B2, “Piperazine substituted bridged spiro[2.4]heptane derivatives as ALX receptor agonists” (Actelion Pharmaceuticals Ltd, priority 2013, dated 2017).

What was measured:
[1] = target: T1, recombinant human ALX receptor (Homo sapiens, UniProt P25090); experiment: Intracellular calcium measurements (FLIPR), ALX receptor agonistic activity; type: cell-based; conditions: HEK293-hALXR-Gα16 cells; median of n replications; normalized to WKYMVm 10 nM; read-out: EC50, agonistic activity with respect to the ALX receptor
T1 construct: expressed in transfected cells; host or cells: HEK293 (HEK293-hALXR-Gα16)
T1 sequence (P25090 1-351): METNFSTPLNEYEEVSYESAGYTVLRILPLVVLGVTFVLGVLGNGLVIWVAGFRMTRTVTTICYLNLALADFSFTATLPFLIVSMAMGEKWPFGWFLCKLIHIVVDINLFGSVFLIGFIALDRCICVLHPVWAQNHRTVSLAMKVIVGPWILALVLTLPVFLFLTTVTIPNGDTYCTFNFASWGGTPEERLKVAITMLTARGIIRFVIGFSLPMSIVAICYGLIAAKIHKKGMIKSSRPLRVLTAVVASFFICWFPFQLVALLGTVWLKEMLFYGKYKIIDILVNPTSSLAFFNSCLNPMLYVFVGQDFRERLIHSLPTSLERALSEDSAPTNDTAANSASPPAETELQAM
Protocol: The ALX receptor agonistic activity of the compounds of formula (I) is determined in accordance with the following experimental method.
Intracellular Calcium Measurements:
Cells expressing recombinant human ALX receptor and the G-protein Gα16 (HEK293-hALXR-Gα16) were grown to 80% confluency in Growing Medium (GM). Cells were detached from culture dishes with a cell dissociation buffer (Invitrogen, 13151-014), and collected by centrifugation at 1′000 rpm at rt for 5 min in Assay Buffer (AB) (equal parts of Hank's BSS (Gibco, 14065-049) and DMEM without Phenol Red (Gibco, 11880-028)). After 60 min incubation at 37° C. under 5% CO2 in AB supplemented with 1 μM Fluo-4 (AM) (Invitrogen, F14202) and 20 mM HEPES (Gibco, 15630-056), the cells were washed and resuspended in AB. They were then seeded onto 384-well FLIPR assay plates (Greiner, 781091) at 50′000 cells in 70 μl per well and sedimented by centrifugation at 1′000 rpm for 1 min. Stock solutions of test compounds were made up at a concentration of 10 mM in DMSO, and serially diluted in AB to concentrations required for activation dose response curves. WKYMVm (Phoenix Peptides) was used as a reference agonist. […] Changes in fluorescence were monitored before and after the addition of test compounds at lex=488 nm and lem=540 nm. […]

[2] = Plasma stability assay, human serum; type: in vitro ADME
Protocol: (§1) Rat or human serum adjusted at pH 7.4 with lactic acid or ammonium hydroxide, were equilibrated at 37° C. under orbital shaking in an incubator containing 5% CO2. The reaction was initiated by the addition of 1 μM of compounds (1.5 μl of 1 mM stock solution in DMSO in 1498.5 μl of plasma). At 0.01, 0.25, 0.5, 1, 2, 3, 4 and 6 h, aliquots (100 μl) were transferred in a 96 well plate containing 300 μl MeOH placed on ice to stop the reaction. After vortexing for 20 min at 1400 rpm on an Eppendorf thermomixer, the plates were centrifuged at 3220 g for 20 min at 4° C. and the supernatants were analyzed with LC-MS/MS. Calibration samples in plasma containing 0.1% of dichlorvos were prepared and analysed in parallel to the incubation samples to allow the quantification. Half lives (T1/2) in hours were then calculated. In addition the remaining concentration of the respective compound after time Tlast relative to the concentration at the beginning has been determined (table 2).

[3] = Plasma stability assay, rat serum; type: in vitro ADME
Protocol: as §1

SMILES: Cc1ccc(C2(NC(=O)C3C(C(=O)NCCN4CCN(C)CC4)C4CCC3C43CC3)CC2)cc1 [Example 1, (5R)-N^5-(1-(p-tolyl)cyclopropyl)-(6R)-N^6-(2-(4-methylpiperazin-1-yl)ethyl)-(4S,7R)-[4,7-ethylene-spiro[2.4]heptane]-5,6-dicarboxamide]
- EC50 [1]: 9.4 nM
- remaining concentration at Tlast ([2]; Tlast 6 h, 1 μM, 37° C.): 82%
- half-life at 1 μM ([2]; pH 7.4, 37° C.): > 6 h
- remaining concentration at Tlast ([3]; Tlast 6 h, 1 μM, 37° C.): 100%
- half-life at 1 μM ([3]; pH 7.4, 37° C.): > 6 h
